{"source": "paper doi:10.1101/153262v1", "about": "(biorxiv, 2017)", "biological_target": "T1, EiCsm6 (Enterococcus italicus, UniProt E6LHV2)", "T1 sequence (E6LHV2 1-430)": "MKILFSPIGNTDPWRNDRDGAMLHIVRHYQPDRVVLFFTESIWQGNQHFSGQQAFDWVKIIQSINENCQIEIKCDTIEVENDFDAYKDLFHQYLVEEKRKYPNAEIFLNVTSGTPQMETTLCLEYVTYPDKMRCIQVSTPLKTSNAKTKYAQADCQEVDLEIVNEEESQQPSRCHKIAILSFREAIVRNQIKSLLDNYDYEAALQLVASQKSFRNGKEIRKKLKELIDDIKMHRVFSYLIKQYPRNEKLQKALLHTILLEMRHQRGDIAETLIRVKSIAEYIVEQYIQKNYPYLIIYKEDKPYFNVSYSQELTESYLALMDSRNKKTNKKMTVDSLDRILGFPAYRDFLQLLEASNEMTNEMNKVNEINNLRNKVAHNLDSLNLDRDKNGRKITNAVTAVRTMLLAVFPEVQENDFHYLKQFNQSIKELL", "assay": "fluorogenic RNase Alert cleavage, initial velocities, log", "assay_type": "biochemical", "details": "activator; allosteric, CARF domain; 20 mM HEPES pH 7.5, 50 mM KCl", "data": [{"smiles": "Nc1ncnc2c1ncn2[C@@H]1O[C@H](CO)[C@@H](OP(=O)(O)OC[C@H]2O[C@@H](n3cnc4c(N)ncnc43)[C@H](O)[C@@H]2OP(=O)(O)OC[C@H]2O[C@@H](n3cnc4c(N)ncnc43)[C@H](O)[C@@H]2OP(=O)(O)OC[C@H]2O[C@@H](n3cnc4c(N)ncnc43)[C@H](O)[C@@H]2OP(=O)(O)OC[C@H]2O[C@@H](n3cnc4c(N)ncnc43)[C@H](O)[C@@H]2OP(=O)(O)OC[C@H]2O[C@@H](n3cnc4c(N)ncnc43)[C@@H]3OP(=O)(O)O[C@@H]32)[C@H]1O", "note": "[A6>P, 2',3'-cyclic phosphate-terminated hexaadenylate]", "values": [{"measurement": "EC50", "result": "~60", "unit": "nM"}]}]}
